Measurements reported in article PMC11542830, “3-nitropyridine analogues as novel microtubule-targeting agents” (PLOS ONE, 2024).

Legend:
Format in all cases: cell-based
NCI-H322M = test: NCI60 5-dose screen, NCI-H322M; conditions: Homo sapiens, non-small cell lung cancer, Fig 1D, read-out: Log10 GI50 (NCI-H322M) (converted)
Procedure: (§1) The screening methodology used in the NCI60 Cell 5-Doses screen is described in detail at https://dtp.cancer.gov/discovery_development/nci-60/methodology.htm. Briefly, cells are seeded in 96 well plates at an appropriate density and incubated for 1 day. After 1 day, some of the plates are processed to determine a time zero density. To the remaining plates, compounds are added over a 5-log M concentration range (1 log dilutions from 10^-4M to 10^-8M). Plates are incubated for two additional days, then fixed and stained with sulforhodamine B. Growth inhibition is calculated relative to cells without drug treatment and the time zero control. The GI50 is the concentration of a compound that causes 50% growth inhibition, relative to the no drug control.

SK-MEL-5 = test: NCI60 5-dose screen, SK-MEL-5; conditions: Homo sapiens, melanoma, Fig 1D, read-out: Log10 GI50 (SK-MEL-5) (converted)
Procedure: as §1

786-0 = test: NCI60 5-dose screen, 786-0; conditions: Homo sapiens, renal cancer, Fig 1D, read-out: Log10 GI50 (786-0) (converted)
Procedure: as §1

OVCAR-8 = test: NCI60 5-dose screen, OVCAR-8; conditions: Homo sapiens, ovarian cancer, Fig 1D, read-out: Log10 GI50 (OVCAR-8) (converted)
Procedure: as §1

MDA-MB-435 = test: NCI60 5-dose screen, MDA-MB-435; conditions: Homo sapiens, melanoma, Fig 1D, read-out: Log10 GI50 (MDA-MB-435) (converted)
Procedure: as §1

SF-295 = test: NCI60 5-dose screen, SF-295; conditions: Homo sapiens, CNS cancer, Fig 1D, read-out: Log10 GI50 (SF-295) (converted)
Procedure: as §1

MOLT-4 = test: NCI60 5-dose screen, MOLT-4; conditions: Homo sapiens, leukemia, Fig 1D, read-out: Log10 GI50 (MOLT-4) (converted)
Procedure: as §1

HCC-2998 = test: NCI60 5-dose screen, HCC-2998; conditions: Homo sapiens, colon cancer, Fig 1D, read-out: Log10 GI50 (HCC-2998) (converted)
Procedure: as §1

PBMC = test: Annexin V/PI flow cytometry viability, PBMC; conditions: Homo sapiens, 72 hours, normal cells, Fig 1C
Excerpt: Buffy coat preparations from healthy donors were obtained from the Blood Transfusion Center in Leuven, Belgium. Peripheral blood mononuclear cells (PBMC) were isolated by density gradient centrifugation over Lymphoprep™ (Axis Shield PoC AS; density 1.077 ± 0.001 g/mL) and cultured in cell culture medium (DMEM/F12, Gibco Thermo Fisher Scientific) containing 8% fetal bovine serum. Each donor consented to the use of his blood for research purposes.
(§2) Cell viability in cancer cell lines treated with compound was measured in a 3-day MTS cell proliferation assay using the CellTiter 96 AQueous Non-Radioactive Cell Proliferation Assay reagent (Promega) according to the manufacturer’s instructions. Absorbance was read at 490 nm on a SaFire II microplate reader (Tecan). CC50 values were calculated by fitting the obtained MTS cell viability data in GraphPad Prism using a 4-parameter log–based fit for inhibitors. Apoptosis induction and cell death upon compound treatment in PBMC was measured using the Alexa Fluor 488 Annexin V/Dead Cell Apoptosis Kit (Thermo Fisher Scientific), with readout on a FACSCanto II flow cytometer (BD Biosciences). For cell cycle analysis, Jurkat cells were seeded at 400,000 cells per well in 12-well tissue culture plates and treated with the test compounds at the indicated concentrations for 24 h. […] The compounds were evaluated in duplo in two independent experiments.

PC-3 = test: NCI60 5-dose screen, PC-3; conditions: Homo sapiens, prostate cancer, Fig 1D, read-out: Log10 GI50 (PC-3) (converted)
Procedure: as §1

BT-549 = test: NCI60 5-dose screen, BT-549; conditions: Homo sapiens, breast cancer, Fig 1D, read-out: Log10 GI50 (BT-549) (converted)
Procedure: as §1

A498 = test: NCI60 5-dose screen, A498; conditions: Homo sapiens, renal cancer, Fig 1D, read-out: Log10 GI50 (A498) (converted)
Procedure: as §1

SR = test: NCI60 5-dose screen, SR; conditions: Homo sapiens, leukemia, Fig 1D, read-out: Log10 GI50 (SR) (converted)
Procedure: as §1

MRC-5 cells = test: 3-day MTS cell viability assay, MRC-5; conditions: Homo sapiens, MRC5, 72 hours, normal lung fibroblast cells, Fig 1C
Procedure: (§3) All cancer cell lines (HT-29: colorectal adenocarcinoma, HCT-116: colorectal carcinoma, A549: lung epithelial carcinoma, PC3: prostate adenocarcinoma, Jurkat: acute T-cell leukemia, BC-1: primary effusion lymphoma) and the normal human embryonal lung fibroblast cell line MRC-5 were acquired from the American Type Culture Collection (ATCC). All cell lines were cultured as recommended by the suppliers. Culture media were purchased from Gibco (Thermo Fisher Scientific) and supplemented with 10 to 20% fetal bovine serum (HyClone, GE Healthcare Life Sciences) and 20–25 μg/mL gentamicin (Gibco, Thermo Fisher Scientific). […]
as §2, with “Biosciences).” for “Biosciences). For cell cycle analysis, Jurkat cells were seeded at 400,000 cells per well in 12-well tissue culture plates and treated with the test compounds at the indicated concentrations for 24 h.”

OVCAR-3 = test: NCI60 5-dose screen, OVCAR-3; conditions: Homo sapiens, ovarian cancer, Fig 1D, read-out: Log10 GI50 (OVCAR-3) (converted)
Procedure: as §1

HL-60(TB) = test: NCI60 5-dose screen, HL-60(TB); conditions: Homo sapiens, leukemia, Fig 1D, read-out: Log10 GI50 (HL-60(TB)) (converted)
Procedure: as §1

HT29 = test: NCI60 5-dose screen, HT29; conditions: Homo sapiens, HT-29; colon cancer; Fig 1D; read-out: Log10 GI50 (HT29) (converted)
Procedure: as §1

COLO 205 = test: NCI60 5-dose screen, COLO 205; conditions: Homo sapiens, colon cancer, Fig 1D, read-out: Log10 GI50 (COLO 205) (converted)
Procedure: as §1

BC-1 cells = test: 3-day MTS cell viability assay, BC-1; conditions: Homo sapiens, BC1, 72 hours, Fig 1C
Procedure: as §3
as §2, with “Biosciences).” for “Biosciences). For cell cycle analysis, Jurkat cells were seeded at 400,000 cells per well in 12-well tissue culture plates and treated with the test compounds at the indicated concentrations for 24 h.”

Cc1ccnc(Nc2ccc([N+](=O)[O-])c(NCCN3CCOCC3)n2)c1 [Compound 4AZA2996, N^6-(4-methylpyridin-2-yl)-N^2-(2-morpholinoethyl)-3-nitropyridine-2,6-diamine]
GI50 (NCI-H322M): 46.8 nM
GI50 (SK-MEL-5): < 10 nM
GI50 (786-0): 12.9 nM
GI50 (OVCAR-8): 20 nM
GI50 (MDA-MB-435): < 10 nM
GI50 (SF-295): < 10 nM
GI50 (MOLT-4): 35.5 nM
GI50 (HCC-2998): 17 nM
IC50 (PBMC): 14100 nM
GI50 (PC-3): < 10 nM
GI50 (BT-549): 19.1 nM
GI50 (A498): < 10 nM
GI50 (SR): < 10 nM
IC50 (MRC-5 cells): 23300 nM
GI50 (OVCAR-3): < 10 nM
GI50 (HL-60(TB)): < 10 nM
GI50 (HT29): < 10 nM
GI50 (COLO 205): < 10 nM
IC50 (BC-1 cells): 5.9 nM

Cc1cc(C)cc(Nc2ccc([N+](=O)[O-])c(NCCN3CCOCC3)n2)c1 [Compound 4AZA2891, 6-(3,5-dimethylanilino)-2-(2-morpholinoethylamino)-3-nitropyridine]
GI50 (NCI-H322M): 81.3 nM
GI50 (SK-MEL-5): < 10 nM
GI50 (786-0): 52.5 nM
GI50 (OVCAR-8): 37.2 nM
GI50 (MDA-MB-435): < 10 nM
GI50 (SF-295): < 10 nM
GI50 (MOLT-4): 56.2 nM
GI50 (HCC-2998): 28.8 nM
IC50 (PBMC): 76700 nM
GI50 (PC-3): 10.5 nM
GI50 (BT-549): 58.9 nM
GI50 (A498): < 10 nM
GI50 (SR): 17.4 nM
IC50 (MRC-5 cells): 29600 nM
GI50 (OVCAR-3): < 10 nM
GI50 (HL-60(TB)): 25.7 nM
GI50 (HT29): 18.6 nM
GI50 (COLO 205): 21.4 nM
IC50 (BC-1 cells): 8.5 nM
